The values that follow come from ChEMBL document CHEMBL3763135, “Synthesis and evaluation of thiophene-based guanylhydrazones (iminoguanidines) efficient against panel of voriconazole-resistant fungal isolates” (Bioorg Med Chem, 2016).

In brackets after ≈: the same amount, converted by molar mass. Activity calls are given as the source filed them.

The MIC is the smallest concentration in the dilution series that meets the test's criterion for growth inhibition. A high value points to weaker potency. One may read the IC50 as the point on the concentration scale where inhibition reaches its midpoint. A lower IC50 goes with greater potency in that assay.

Series [1] concerns Candida albicans. Briefly: Antifungal activity against Candida albicans ATCC 10231 by broth dilution method. The class given is functional. (In broth dilution the organism is exposed to a series of concentrations in liquid medium.)
In series [2] the test system is Candida albicans. Briefly: Antifungal activity against Candida albicans CA5 by broth dilution method. The class given is functional.
Series [3] relates to Pichia kudriavzevii. Briefly: Antifungal activity against Candida krusei ATCC 34135 by broth dilution method. Format: functional.
Series [4] relates to Candida parapsilosis. Description: Antifungal activity against Candida parapsilosis C27 by broth dilution method. The class given is functional. Conditions: Lodderomyces parapsilosis.
For another series, the system named is Aspergillus fumigatus. Description: Antifungal activity against Aspergillus fumigatus ATCC 13073 by broth dilution method. The class given is functional.
Another series relates to Fusarium oxysporum. Description: Antifungal activity against Fusarium oxysporum AB18 by broth dilution method. The class given is functional.
For the next series, the system named is Microsporum canis. Description: Antifungal activity against Microsporum canis DMT2 by broth dilution method. Format: functional.
Series [5] relates to Trichophyton mentagrophytes. Briefly: Antifungal activity against Trichophyton mentagrophytes DMT4 by broth dilution method. Format: functional.
For the next series, the system named is MRC5. Briefly: Cytotoxicity against human MRC5 cells after 48 hrs by MTT assay. Format: cell-based. The following applies: MRC5, 48 h. (In general: Tetrazolium assays rely on reduction of a dye to a coloured formazan, in cell work by metabolically active cells.)
A short description of series [6]: Hemolytic effect in sheep RBC assessed as release of hemoglobin at MIC after 1 hr. Format: ADME, cell-based, Ovis aries, Erythrocyte. Conditions: sheep red blood cells, read-out: Activity.
The nature of series [7]: Hemolytic effect in sheep RBC assessed as release of hemoglobin at cytotoxic IC50 after 1 hr. Format: cell-based, Ovis aries, Erythrocyte. Conditions: sheep red blood cells, read-out: Activity.
Series [8] deals with Candida albicans. Briefly: Induction of DNA intercalation with Candida albicans genomic DNA at 25 ug/ml after 12 hrs by ethidium bromide staining based gel electrophoresis method.
In series [9] the test system is Candida albicans. Description: Antibiofilm activity against Candida albicans assessed as inhibition of Spider medium-induced hyphae formation at sub-MIC after 24 hrs by propidium iodide and FITC-conjugated concanavaline A staining based fluorescence microscopy. Format: functional, organism-based.
Series [10] has as its system Candida albicans. Description: Antibiofilm activity against Candida albicans ATCC 10231 assessed as disruption of preformed biofilm after 24 hrs by concanavalin A-FITC-staining based fluorescence microscopic analysis. Format: functional.
In series [11] the test system is Pichia kudriavzevii. Briefly: Antibiofilm activity against Pichia kudriavzevii ATCC 34135 assessed as disruption of preformed biofilm after 24 hrs by concanavalin A-FITC-staining based fluorescence microscopic analysis. The class given is functional.
Series [12] deals with Candida parapsilosis. Description: Antibiofilm activity against Candida parapsilosis C27 assessed as disruption of preformed biofilm after 24 hrs by concanavalin A-FITC-staining based fluorescence microscopic analysis. Format: functional.
Series [13] is described as follows: Induction of membrane damage in PC/PS liposome assessed as calcein release at MIC after 30 mins by fluorescence-based liposome leakage assay. Format: functional.

Turning to `Cl.N#Cc1ccc(-c2ccc(/C=N/NC(=N)N)s2)cc1`, the minimum inhibitory concentration (MIC) in the series on Candida albicans [1] is 3.9 µg/mL; against Candida albicans [2] it was 7.8 µg/mL; against Pichia kudriavzevii [3], 25 µg/mL; in the series with Candida parapsilosis [4], 12.5 µg/mL; against Aspergillus fumigatus it was 25 µg/mL; in the series on Fusarium oxysporum, > 250 µg/mL. The results for the minimum inhibitory concentration (MIC) (against Microsporum canis; in series [5]) were 0.97 µg/mL and 6.25 µg/mL, respectively. Moreover, the IC50 with MRC5 was found to be 5 µg/mL. Also, the hemolysis at 1 h in [6] and in series [7] was ≤ 10% throughout. The result with Candida albicans [8] and with Candida albicans [9] was Active. The MBEC in the series with Candida albicans [10] is 250 µg/mL; in the series with Pichia kudriavzevii [11], >1000 µg/mL; in the series on Candida parapsilosis [12], 1000 µg/mL.

Regarding NYSTATIN, in series [13], the Activity is 21%.

As to `O=Cc1ccc(-c2ccccc2)s1`, the MIC in the series with Candida albicans [1] is 250 µg/mL (≈ 1330 µM); with Candida albicans [2], 250 µg/mL (≈ 1330 µM); against Pichia kudriavzevii [3], > 250 µg/mL; with Candida parapsilosis [4], > 250 µg/mL; in the series with Aspergillus fumigatus, 125 µg/mL (≈ 664 µM); with Fusarium oxysporum, 250 µg/mL (≈ 1330 µM). Moreover, the minimum inhibitory concentration (MIC) (against Microsporum canis; in [5]) was 250 µg/mL (≈ 1330 µM) throughout. This compound also gave an IC50 with MRC5 of 50 µg/mL (≈ 266 µM). For the same compound, the hemolysis at 1 h in [6] and in [7] was ≤ 10% each time. The result in the series with Candida albicans [8] was inactive. Also, the outcome in the series with Candida albicans [9] was Active. In addition, the MBEC in the series with Candida albicans [10], with Pichia kudriavzevii [11] and in the series with Candida parapsilosis [12] was >1000 µg/mL in each case.

With `Cl.N=C(N)N/N=C/c1ccc(-c2ccccc2)s1`, the MIC came out at 1.95 µg/mL in the series with Candida albicans [1]; 1.95 µg/mL in the series with Candida albicans [2]; 6.25 µg/mL with Pichia kudriavzevii [3]; 6.25 µg/mL against Candida parapsilosis [4]; 25 µg/mL with Aspergillus fumigatus; 62.5 µg/mL with Fusarium oxysporum. Also, the figures for the MIC (in the series on Microsporum canis; in series [5]) were 1.56 µg/mL and 3.12 µg/mL, respectively. In addition, in the series with MRC5, the 50% inhibitory concentration (IC50) is 5 µg/mL. Besides, the hemolysis at 1 h in [6] and in series [7] was ≤ 10% each time. Moreover, the outcome in the series on Candida albicans [8] and in the series with Candida albicans [9] was Active. The MBEC in the series on Candida albicans [10] is 1000 µg/mL; in the series with Pichia kudriavzevii [11], >1000 µg/mL; with Candida parapsilosis [12], >1000 µg/mL.

As for `COc1ccc(-c2ccc(/C=N/NC(=N)N)s2)cc1.Cl`, the MIC against Candida albicans [1] was 7.8 µg/mL; in the series with Candida albicans [2], 3.9 µg/mL; against Pichia kudriavzevii [3], 6.25 µg/mL; in the series on Candida parapsilosis [4], 6.25 µg/mL; with Aspergillus fumigatus, 25 µg/mL; against Fusarium oxysporum, > 250 µg/mL. Also, the MIC came out at 0.97 µg/mL against Microsporum canis and 3.12 µg/mL in series [5]. In the series on MRC5, this compound came in with an IC50 of 5 µg/mL. Moreover, the hemolysis at 1 h in series [6] and in series [7] was ≤ 10% in each case. Further, the outcome in the series on Candida albicans [8] and with Candida albicans [9] was Active. Moreover, the values for the MBEC with Candida albicans [10], with Pichia kudriavzevii [11] and with Candida parapsilosis [12] were 500 µg/mL, 1000 µg/mL and 1000 µg/mL, respectively.

`Cl.N=C(N)N/N=C/c1ccc(-c2ccccc2)o1`: the MIC was determined as 7.8 µg/mL in the series with Candida albicans [1]; 15.6 µg/mL against Candida albicans [2]; 50 µg/mL with Pichia kudriavzevii [3]; 50 µg/mL in the series on Candida parapsilosis [4]; 125 µg/mL in the series on Aspergillus fumigatus; 125 µg/mL against Fusarium oxysporum. Also, the MIC in the series with Microsporum canis turned out to be 1.56 µg/mL; in [5] it was 6.25 µg/mL. In the series with MRC5, this compound registered a concentration for half-maximal inhibition (IC50) of 20 µg/mL. In addition, the hemolysis at 1 h in [6] and in [7] was ≤ 10% throughout. For the same compound, the result in the series with Candida albicans [8] and with Candida albicans [9] was Active. The results for the MBEC in the series on Candida albicans [10], with Pichia kudriavzevii [11] and in the series with Candida parapsilosis [12] were 500 µg/mL, 500 µg/mL and 1000 µg/mL, respectively.

Turning to `Cl.N=C(N)N/N=C/c1ccc(-c2ccc(F)cc2)s1`, the MIC in the series with Candida albicans [1] was 3.9 µg/mL; against Candida albicans [2], 1.95 µg/mL; in the series on Pichia kudriavzevii [3] it was 6.25 µg/mL; in the series with Candida parapsilosis [4], 6.25 µg/mL; against Aspergillus fumigatus, 25 µg/mL; against Fusarium oxysporum, > 250 µg/mL. In addition, the figures for the minimal inhibitory concentration (MIC) (against Microsporum canis; in series [5]) were 0.97 µg/mL and 1.56 µg/mL, respectively. This compound returned an IC50 in the series on MRC5 of 4 µg/mL. The hemolysis at 1 h in [6] and in [7] was ≤ 10% in each case. Also, the result in the series on Candida albicans [8] and with Candida albicans [9] was Active. Further, the MBEC with Candida albicans [10], in the series with Pichia kudriavzevii [11] and with Candida parapsilosis [12] was >1000 µg/mL throughout.
